The source made the active and inactive calls.
Experiments:
Troponin, cardiac muscle = Troponin, cardiac muscle (Homo sapiens, UniProt P19429+P45379+P63316); test: Fluorescence-based biochemical high throughput dose response assay for activators of the calcium sensitivity of cardiac Regulated Thin Filaments (RTF). [Related pubchem assays (depositor defined):AID493008, AID493018, AID504382, AID504383]; type: protein-complex assay
[1] = target: T1, DNA repair and recombination protein RAD54-like (Homo sapiens, UniProt Q92698); test: RAD54 Holliday junction migration blockers – biochemical, fluorescence, cherry-picked samples, dose series, confirmation (AID 651657); type: functional
T1 sequence (Q92698 whole entry): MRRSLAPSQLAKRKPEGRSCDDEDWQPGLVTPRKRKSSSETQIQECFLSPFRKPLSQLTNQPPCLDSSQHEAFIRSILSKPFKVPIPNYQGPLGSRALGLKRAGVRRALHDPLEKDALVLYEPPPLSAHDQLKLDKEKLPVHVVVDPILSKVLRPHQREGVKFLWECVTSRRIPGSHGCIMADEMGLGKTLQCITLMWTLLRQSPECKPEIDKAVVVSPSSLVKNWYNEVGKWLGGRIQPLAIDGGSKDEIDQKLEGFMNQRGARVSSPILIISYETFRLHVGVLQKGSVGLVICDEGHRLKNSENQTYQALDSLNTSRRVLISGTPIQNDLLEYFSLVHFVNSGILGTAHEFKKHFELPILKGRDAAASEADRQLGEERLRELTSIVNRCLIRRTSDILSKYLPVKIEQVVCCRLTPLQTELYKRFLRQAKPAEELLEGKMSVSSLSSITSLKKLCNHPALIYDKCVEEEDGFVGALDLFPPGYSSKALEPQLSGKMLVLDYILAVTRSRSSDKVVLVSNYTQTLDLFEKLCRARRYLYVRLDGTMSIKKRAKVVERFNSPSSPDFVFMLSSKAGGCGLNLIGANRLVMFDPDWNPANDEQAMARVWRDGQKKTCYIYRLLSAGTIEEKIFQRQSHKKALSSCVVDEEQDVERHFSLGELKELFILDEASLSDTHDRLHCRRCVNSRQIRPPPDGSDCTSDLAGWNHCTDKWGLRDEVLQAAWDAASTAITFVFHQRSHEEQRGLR

[2] = target: T2, Ubiquitin-conjugating enzyme E2 N (Homo sapiens, UniProt P61088); type: functional;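 also: Dose-response confirmation in a TR-FRET assay detecting UBC13-driven polyubiquitin chain formation, inhibition measured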
T2 sequence (P61088 whole entry): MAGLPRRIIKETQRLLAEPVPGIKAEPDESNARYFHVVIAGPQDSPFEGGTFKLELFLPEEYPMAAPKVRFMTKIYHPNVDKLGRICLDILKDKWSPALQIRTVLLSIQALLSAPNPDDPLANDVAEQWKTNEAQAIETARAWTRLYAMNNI

HEK293 = test: EBV LMP1 TES2 canonical NF-kB signalling blockers – cell-based, HEK293, luciferase, cherry-pick, dose response (AID 588343); type: functional; conditions: Homo sapiens
Genome polyprotein = Genome polyprotein (dengue virus type 2, UniProt P29990); test: flavivirus cap methylation enzyme inhibition – biochemical, confirmation dose response, primary screen (AID 588689); type: functional
Beta-galactosidase = Beta-galactosidase (Escherichia coli, UniProt Q8VNN2); test: PubChem AID 485352; type: functional
[3] = target: T3, Type-1 angiotensin II receptor (Homo sapiens, UniProt P30556); test: antagonism of angiotensin II type 1 receptor – cell-based, uHTS hits, selectivity assay for APJ receptor antagonist project, dose response (AID 463214); type: functional;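 also: antagonist potency against angiotensin II stimulated AT1 response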
T3 sequence (P30556 whole entry): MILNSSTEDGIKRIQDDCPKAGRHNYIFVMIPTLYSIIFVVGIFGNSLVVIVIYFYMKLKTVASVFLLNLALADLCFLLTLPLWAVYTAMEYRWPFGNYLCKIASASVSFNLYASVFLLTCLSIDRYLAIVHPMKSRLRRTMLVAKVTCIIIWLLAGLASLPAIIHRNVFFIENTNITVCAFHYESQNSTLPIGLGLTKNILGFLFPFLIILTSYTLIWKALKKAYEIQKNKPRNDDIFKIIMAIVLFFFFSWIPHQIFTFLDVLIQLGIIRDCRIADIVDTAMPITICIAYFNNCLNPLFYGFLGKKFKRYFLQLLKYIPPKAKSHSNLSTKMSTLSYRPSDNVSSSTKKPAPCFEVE

Escherichia coli = test: microbe, parasite or virus in culture
[4] = target: T4, Histone-lysine N-methyltransferase NSD2 (Homo sapiens, UniProt O96028); type: biochemical
T4 sequence (O96028 whole entry): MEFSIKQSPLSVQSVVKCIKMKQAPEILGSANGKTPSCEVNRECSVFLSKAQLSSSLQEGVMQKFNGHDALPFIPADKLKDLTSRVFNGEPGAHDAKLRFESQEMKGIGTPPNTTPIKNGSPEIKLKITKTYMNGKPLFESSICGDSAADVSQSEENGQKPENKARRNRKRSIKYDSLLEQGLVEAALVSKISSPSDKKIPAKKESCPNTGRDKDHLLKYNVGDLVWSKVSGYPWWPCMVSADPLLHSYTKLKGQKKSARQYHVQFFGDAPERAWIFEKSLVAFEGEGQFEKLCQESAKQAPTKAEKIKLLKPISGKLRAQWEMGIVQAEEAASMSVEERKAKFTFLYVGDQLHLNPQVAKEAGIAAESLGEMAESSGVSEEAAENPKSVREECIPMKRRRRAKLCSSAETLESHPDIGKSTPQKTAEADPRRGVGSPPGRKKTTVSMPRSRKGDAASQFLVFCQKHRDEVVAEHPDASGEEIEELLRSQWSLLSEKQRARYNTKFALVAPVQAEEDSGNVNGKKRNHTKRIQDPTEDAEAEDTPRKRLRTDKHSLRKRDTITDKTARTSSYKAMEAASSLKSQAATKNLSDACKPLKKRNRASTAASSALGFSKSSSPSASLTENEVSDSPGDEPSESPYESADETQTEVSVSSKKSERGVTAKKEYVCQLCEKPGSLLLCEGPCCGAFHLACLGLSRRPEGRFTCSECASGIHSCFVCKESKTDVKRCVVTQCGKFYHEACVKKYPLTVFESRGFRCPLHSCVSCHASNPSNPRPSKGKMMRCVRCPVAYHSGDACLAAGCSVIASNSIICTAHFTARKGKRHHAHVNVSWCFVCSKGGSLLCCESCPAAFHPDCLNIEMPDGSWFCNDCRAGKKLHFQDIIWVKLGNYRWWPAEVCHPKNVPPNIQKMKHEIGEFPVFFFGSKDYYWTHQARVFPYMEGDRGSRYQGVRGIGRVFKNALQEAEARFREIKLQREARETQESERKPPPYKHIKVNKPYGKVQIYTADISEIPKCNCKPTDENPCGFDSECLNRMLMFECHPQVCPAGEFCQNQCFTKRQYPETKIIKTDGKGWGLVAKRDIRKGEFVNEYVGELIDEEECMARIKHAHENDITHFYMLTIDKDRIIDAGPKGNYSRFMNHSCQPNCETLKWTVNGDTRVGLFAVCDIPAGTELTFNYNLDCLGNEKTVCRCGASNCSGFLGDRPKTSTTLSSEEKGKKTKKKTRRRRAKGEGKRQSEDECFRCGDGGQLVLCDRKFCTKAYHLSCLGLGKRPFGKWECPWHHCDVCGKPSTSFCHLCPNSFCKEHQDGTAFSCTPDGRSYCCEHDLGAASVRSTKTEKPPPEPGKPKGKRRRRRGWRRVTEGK

[5] = target: DNA dC->dU-editing enzyme APOBEC-3A (Homo sapiens, UniProt P31941); test: Dose Response confirmation of small molecule APOBEC3A DNA Deaminase Inhibitors via a fluorescence-based single-stranded DNA deaminase assay. [Related pubchem assays (depositor defined):AID493011, AID493024]; type: functional
[6] = target: DNA dC->dU-editing enzyme APOBEC-3G (Homo sapiens, UniProt Q9HC16); type: functional;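 also: Dose-response counterscreen measuring inhibition of APOBEC3G DNA deaminase activity, run while confirming APOBEC3A inhibitors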
[7] = Trypanosoma cruzi growth suppression in host cells – NIH3T3 host cells, beta-gal luminescence, confirmation (AID 2044); type: functional, cell-based;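 also: intracellular parasites grown in NIH/3T3 mouse fibroblasts as host cells; luminescent beta-galactosidase reporter signal from transgenic T. cruzi replicating inside host cells; inhibitors lower the luminescence signal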
[8] = target: T5, Adenosylmethionine-8-amino-7-oxononanoate aminotransferase (Mycobacterium tuberculosis, UniProt P9WQ81); test: Mycobacterium tuberculosis BioA enzyme inhibitor Measured in Biochemical System Using Plate Reader - 2163-02_Inhibitor_Dose_CherryPick_Activity.; type: functional, Mycobacterium tuberculosis UT205
T5 sequence (P9WQ81 whole entry): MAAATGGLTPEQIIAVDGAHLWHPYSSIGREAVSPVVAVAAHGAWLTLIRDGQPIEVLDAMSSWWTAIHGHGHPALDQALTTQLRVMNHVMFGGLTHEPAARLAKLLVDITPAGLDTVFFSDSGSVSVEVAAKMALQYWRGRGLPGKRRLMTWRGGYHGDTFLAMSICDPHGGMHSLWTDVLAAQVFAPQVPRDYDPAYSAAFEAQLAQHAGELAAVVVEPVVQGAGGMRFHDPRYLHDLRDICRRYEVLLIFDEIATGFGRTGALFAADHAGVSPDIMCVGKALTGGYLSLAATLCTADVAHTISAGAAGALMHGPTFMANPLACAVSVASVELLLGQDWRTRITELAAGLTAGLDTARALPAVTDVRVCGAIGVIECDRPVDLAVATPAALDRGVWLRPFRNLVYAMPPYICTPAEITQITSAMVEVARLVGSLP

[9] = NIH3T3 cell viability loss – ATP luminescence, mouse fibroblasts, counter-screen, dose response (AID 2010); type: functional, cell-based;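 also: cells exposed to compound for about 90 hours before reading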
[10] = target: T6, Low molecular weight phosphotyrosine protein phosphatase (Homo sapiens, UniProt P24666); type: functional; conditions: read-out: IC50_Mean;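 also: Dose-response confirmation assay measuring inhibition of LMPTP enzyme activity by fluorescence intensity read-out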
T6 sequence (P24666 whole entry): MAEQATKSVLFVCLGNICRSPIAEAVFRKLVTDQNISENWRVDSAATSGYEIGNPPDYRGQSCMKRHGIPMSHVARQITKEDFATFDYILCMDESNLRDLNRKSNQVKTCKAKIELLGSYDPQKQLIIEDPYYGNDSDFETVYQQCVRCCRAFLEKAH

[11] = viability of uninfected HEp-2 cells – cell-based, HTS, cytotoxicity control for RSV inhibitor project, dose response (AID 2410); type: functional; conditions: human respiratory syncytial virus
[12] = target: T7, Corticotropin-releasing factor receptor 2/Corticotropin-releasing factor-binding protein (Homo sapiens, UniProt P24387+Q13324); test: activators of CRF receptor 2 with binding protein – uHTS hits, confirmation (AID 602473); type: functional; conditions: read-out: EC50_Mean
T7 sequence (Q13324 whole entry): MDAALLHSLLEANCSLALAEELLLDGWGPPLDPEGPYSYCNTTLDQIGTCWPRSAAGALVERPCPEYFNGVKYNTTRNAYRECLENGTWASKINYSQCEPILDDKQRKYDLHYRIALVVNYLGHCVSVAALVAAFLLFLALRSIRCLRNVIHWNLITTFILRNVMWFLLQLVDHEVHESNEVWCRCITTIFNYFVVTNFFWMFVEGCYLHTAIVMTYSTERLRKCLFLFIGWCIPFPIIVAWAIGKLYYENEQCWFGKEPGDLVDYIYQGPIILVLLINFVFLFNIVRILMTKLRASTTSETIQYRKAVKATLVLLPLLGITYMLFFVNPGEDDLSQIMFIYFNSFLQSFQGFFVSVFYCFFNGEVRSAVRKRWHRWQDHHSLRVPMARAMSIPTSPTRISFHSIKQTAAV
T7 sequence (P24387 whole entry): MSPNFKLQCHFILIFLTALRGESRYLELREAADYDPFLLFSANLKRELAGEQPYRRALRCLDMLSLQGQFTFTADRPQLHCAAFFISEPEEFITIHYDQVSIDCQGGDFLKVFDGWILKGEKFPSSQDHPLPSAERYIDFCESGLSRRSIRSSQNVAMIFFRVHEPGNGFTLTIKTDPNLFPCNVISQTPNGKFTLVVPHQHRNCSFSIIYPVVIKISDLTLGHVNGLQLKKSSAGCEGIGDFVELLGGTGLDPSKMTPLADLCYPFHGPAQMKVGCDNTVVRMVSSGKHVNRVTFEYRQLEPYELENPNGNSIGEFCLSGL

Chain of Beta-galactosidase (Q8VNN2 whole entry): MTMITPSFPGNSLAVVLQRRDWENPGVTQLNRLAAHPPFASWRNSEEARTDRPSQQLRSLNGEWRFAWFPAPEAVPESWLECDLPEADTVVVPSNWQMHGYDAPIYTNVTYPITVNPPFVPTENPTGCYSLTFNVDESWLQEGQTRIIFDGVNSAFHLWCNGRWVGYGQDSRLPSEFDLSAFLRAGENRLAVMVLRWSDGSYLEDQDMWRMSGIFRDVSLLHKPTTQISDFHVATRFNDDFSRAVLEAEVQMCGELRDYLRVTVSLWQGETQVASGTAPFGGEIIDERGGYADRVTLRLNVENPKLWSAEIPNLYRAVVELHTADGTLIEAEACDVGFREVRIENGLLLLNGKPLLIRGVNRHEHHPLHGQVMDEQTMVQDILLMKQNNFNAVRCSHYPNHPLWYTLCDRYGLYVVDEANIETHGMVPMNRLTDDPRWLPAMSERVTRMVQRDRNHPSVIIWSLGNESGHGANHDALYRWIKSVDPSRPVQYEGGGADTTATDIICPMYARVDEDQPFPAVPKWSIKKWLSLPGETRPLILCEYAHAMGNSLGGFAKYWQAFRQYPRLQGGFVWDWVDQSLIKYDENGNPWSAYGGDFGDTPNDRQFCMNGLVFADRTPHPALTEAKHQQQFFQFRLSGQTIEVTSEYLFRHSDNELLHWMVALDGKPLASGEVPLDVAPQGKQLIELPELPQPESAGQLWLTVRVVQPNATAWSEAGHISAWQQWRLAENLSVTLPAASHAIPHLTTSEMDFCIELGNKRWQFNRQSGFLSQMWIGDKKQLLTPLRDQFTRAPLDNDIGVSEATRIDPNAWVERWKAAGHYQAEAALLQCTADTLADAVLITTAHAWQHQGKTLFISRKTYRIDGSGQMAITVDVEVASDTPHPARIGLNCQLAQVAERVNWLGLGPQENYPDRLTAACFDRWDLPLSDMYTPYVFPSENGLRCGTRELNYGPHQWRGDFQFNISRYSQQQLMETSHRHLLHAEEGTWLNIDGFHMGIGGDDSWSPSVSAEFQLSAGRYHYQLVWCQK
Chain of Genome polyprotein (P29990 2492-3391 limits assumed): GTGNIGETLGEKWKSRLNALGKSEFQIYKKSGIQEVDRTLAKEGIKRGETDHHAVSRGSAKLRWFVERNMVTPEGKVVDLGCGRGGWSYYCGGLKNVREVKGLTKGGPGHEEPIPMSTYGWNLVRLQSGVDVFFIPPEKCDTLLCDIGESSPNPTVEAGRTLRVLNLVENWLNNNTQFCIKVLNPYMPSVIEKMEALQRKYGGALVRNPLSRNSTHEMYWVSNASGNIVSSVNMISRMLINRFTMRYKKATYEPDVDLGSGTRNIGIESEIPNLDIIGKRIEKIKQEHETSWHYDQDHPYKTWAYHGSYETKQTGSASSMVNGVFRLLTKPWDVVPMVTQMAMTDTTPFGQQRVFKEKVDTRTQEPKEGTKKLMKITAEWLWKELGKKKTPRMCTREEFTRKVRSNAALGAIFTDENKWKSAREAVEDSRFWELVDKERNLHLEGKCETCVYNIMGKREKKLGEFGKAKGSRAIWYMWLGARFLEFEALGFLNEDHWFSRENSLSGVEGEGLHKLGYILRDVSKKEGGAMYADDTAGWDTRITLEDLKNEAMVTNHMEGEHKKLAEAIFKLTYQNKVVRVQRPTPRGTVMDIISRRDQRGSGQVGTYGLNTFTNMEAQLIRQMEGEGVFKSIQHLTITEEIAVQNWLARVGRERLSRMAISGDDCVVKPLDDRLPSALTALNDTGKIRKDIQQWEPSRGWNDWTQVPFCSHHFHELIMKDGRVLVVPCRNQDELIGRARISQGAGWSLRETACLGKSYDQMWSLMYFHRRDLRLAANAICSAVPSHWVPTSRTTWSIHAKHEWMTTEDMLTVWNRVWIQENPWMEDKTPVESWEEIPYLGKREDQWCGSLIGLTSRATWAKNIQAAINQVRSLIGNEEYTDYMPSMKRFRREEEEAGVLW
Chain of DNA dC->dU-editing enzyme APOBEC-3G (Q9HC16 whole entry): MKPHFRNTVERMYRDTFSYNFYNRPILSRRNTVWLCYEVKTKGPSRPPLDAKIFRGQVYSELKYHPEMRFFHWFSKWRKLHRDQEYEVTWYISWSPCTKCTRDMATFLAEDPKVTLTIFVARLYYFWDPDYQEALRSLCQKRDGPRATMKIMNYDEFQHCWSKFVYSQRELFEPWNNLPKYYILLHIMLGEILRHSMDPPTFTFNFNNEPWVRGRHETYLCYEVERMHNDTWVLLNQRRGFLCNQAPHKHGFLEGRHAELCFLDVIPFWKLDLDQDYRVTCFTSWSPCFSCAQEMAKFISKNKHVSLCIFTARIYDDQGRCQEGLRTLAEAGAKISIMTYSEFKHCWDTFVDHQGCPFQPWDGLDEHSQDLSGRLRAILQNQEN
Chain of DNA dC->dU-editing enzyme APOBEC-3A (P31941 whole entry): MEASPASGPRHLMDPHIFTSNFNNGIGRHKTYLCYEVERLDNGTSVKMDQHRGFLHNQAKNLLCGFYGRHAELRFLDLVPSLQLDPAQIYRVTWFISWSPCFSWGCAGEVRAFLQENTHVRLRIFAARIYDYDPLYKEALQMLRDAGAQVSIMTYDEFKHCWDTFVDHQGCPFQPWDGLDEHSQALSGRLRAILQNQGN

CC1CN(c2ccc(NS(=O)(=O)c3ccccc3)cc2C(=O)O)CC(C)O1 (configuration not stated)
EC50 (Troponin, cardiac muscle): > 71.5 µM (inactive)

Cc1nc2ccccc2c2oc(C(=O)N3CCC(N4CCCCC4)CC3)cc12
AC50 [1]: 23.1 µM (active) | IC50 [2]: > 20 µM (inactive)

CCn1c2ccccc2c2cc(/C=N/NC(=O)c3ccccc3)ccc21
AC50 (HEK293): 3.99 µM (active)

N#C/C(=C\c1ccc(C#N)cc1)C(=O)c1ccccc1
IC50 (Genome polyprotein): > 100 µM (active)

COc1ccc(NC(=O)Nc2cccc3c2O[C@@H](CN(C)CC2CCCCC2)[C@@H](C)CN([C@H](C)CO)C3=O)cc1
EC50 (Beta-galactosidase): > 40 µM (inactive) | IC50 [3]: > 40 µM (not active)

COc1ccc(Cl)cc1N=C(S)NCc1cccnc1
AC50 (Escherichia coli): 29.7 µM (active)

O=C(O)c1ccc(CSc2n[nH]c(-c3ccco3)n2)cc1
AC50 [4]: > 20 µM (inactive) | IC50 [5]: 9.95 µM (active) | IC50 [6]: 19.3 µM (active)

CC1=C(C#N)C(c2cccnc2)C2=C(O)CC(c3ccc(Cl)cc3)CC2=N1 (configuration not stated)
EC50 [7]: 2.26 µM (active) | AC50 [8]: 0.67 µM (active) | EC50 [9]: 21.8 µM (active)

S=C(N/N=C/c1ccccc1)N1CCOCC1
EC50 (Beta-galactosidase): > 40 µM (inactive) | IC50 [3]: 13.3 µM (active)

COc1ccc(-c2nn(-c3ccccc3)cc2/C=N/NC(N)=S)cc1OC
EC50 (Troponin, cardiac muscle): > 71.5 µM (inactive)

Cn1c(CCN2CCN(c3ccccn3)CC2)nc2cc(NC(=O)COc3ccc([N+](=O)[O-])cc3)ccc21
IC50 [10]: 8.47 µM (active)

COc1ccccc1S(=O)(=O)N1CC[C@@H]2[C@H](CO)Nc3ccc(-c4cccc(C#N)c4)cc3[C@@H]21
AC50 [8]: 18.5 µM (active)

O=C1OCC(CO)(CO)N=C1NNc1cc(Cl)ccc1Cl
EC50 (Beta-galactosidase): > 40 µM (inactive) | IC50 [3]: 12.1 µM (active)

Nc1nnnn1CC(=O)N/N=C/c1ccc(-c2cccc(Cl)c2)o1
AC50 (Escherichia coli): 21.6 µM (active)

O=C(Nc1ccc(F)c(F)c1)c1ccc(-n2cncn2)c([N+](=O)[O-])c1
CC50 [11]: 18.3 µM (active) | AC50 [8]: 1.49 µM (active)

C=C(C)CSc1nc(N)c2c3c(sc2n1)CCC3
AC50 [8]: 18.2 µM (active) | EC50 [12]: > 53 µM (inactive)

CCOC(=O)N1CCC(N(CCN(C)C)C(S)=Nc2ccc(Oc3ccccc3)cc2)CC1
AC50 (Escherichia coli): 43.6 µM (active)
